In patent publication US8557272B2, “Device for local and/or regional delivery employing liquid formulations of therapeutic agents” (Cordis Corporation, priority 2004, dated 2013):

Key:
[1] = Drug concentration in liquid formulations (liquid chromatography, HPLC assay); format: physicochemical
[2] = Porcine drug elution PK study of the dual drug eluting coating; format: in vivo; settings: after eight (8) days of implantation; single-layer configuration of FIG. 83
Description: Another critical parameter for the performance of the thrombus resistance of a device coated with cilostazol is the duration of the drug release from the coating. This is of particular significance in the two weeks after device implantation. In the porcine drug elution PK studies of the dual drug eluting coating, both cilostazol and sirolius were slowly released from the coating, resulting in a sustained drug release profile. The purpose of the porcine PK study is to assess the local pharmacokinetics of a drug eluting stent at a given implantation time. Normally three stents are implanted in three different coronary arteries in a pig for a given time point and then retrieved for total drug recovery analysis. The stents are retrieved at predetermined time points; namely, 1, 3 and 8 days. The stents are extracted and the total amount of drug remaining on the stents is determined by analysis utilizing HPLC (high performance liquid chromatography) for total drug amount. The difference between the original amount of drug on the stent and the amount of drug retrieved at a given time represents the amount of drug released in that period. The continuous release of drug into surrounding arterial tissue is what prevents the neointimal growth and restenosis in the coronary artery. A normal plot represents the percentage of total drug released (%, y-axis) vs. time of implantation (day, x-axis). […]

[3] = system: human coronary artery smooth muscle cells; assay: Anti-proliferative activity in non-synchronized cultured human coronary artery smooth muscle cells stimulated with two percent fetal bovine serum; format: cell-based; settings: agent added to cells treated with rapamycin
Description: The multiple curves represent various concentrations of mycophenolic acid ranging from zero to one thousand nanomolar concentrations.
FIG. 58 illustrates, in graphical format, the anti-proliferative activity of cladribine in non-synchronized cultured human coronary artery smooth muscle cells stimulated with two percent fetal bovine serum.
The multiple curves represent various concentrations of cladribine ranging from zero to nine hundred nanomolar concentrations.

[4] = Experimental: The concentrations are determined by liquid chromatography and are presented as weight by volume figures.
In making the first formulation, 100 mg of paclitaxel is added to 400 μl of ethanol in a pre-weighed 20 ml scintillation vial. The mixture of paclitaxel and ethanol is vortexed and heated in a 60 degree C. bath for ten minutes. Once the drug is completely solubilized, 20 ml of PEG 400 is then added to make the final paclitaxel concentration 5 mg/ml. […] In a separate experiment, a series of 20 ml scintillation vials containing Vitamin E TPGS are heated or warmed up in a 50 degree C. water bath for ten minutes. Concurrently, distilled water is also warmed in a 50 degree C. water bath. Once the Vitamin E TPGS was melted in each vial, the distilled water is added into the Vitamin E TPGS vials and vortexed for one minute and left to stand in the water bath for two hours. The final concentrations of Vitamin E TPGS in water were one, five and fifteen percent. The paclitaxel stock solution (5 mg/ml) described herein was then mixed with the Vitamin E TPGS solutions to make the final paclitaxel formulations.

[5] = system: human coronary artery smooth muscle cell; assay: MTS assay of Panzem®; format: cell-based; settings: concentrations up to 30,000.00 nanomolar
Description: Typically, a control is utilized to determine baseline toxicity.

[6] = system: human coronary artery smooth muscle cells; assay: Anti-proliferative activity in synchronized cultured human coronary artery smooth muscle cells stimulated with two percent fetal bovine serum; format: cell-based; settings: for effect of the added agent on the anti-proliferative rapamycin dose response curve: agent added to cells treated with rapamycin
Description: (§1) The multiple curves represent various concentrations of topotecan ranging from zero to three hundred nanomolar concentrations.
(§2) The multiple curves represent various concentrations of etoposide ranging from zero to eight hundred nanomolar concentrations.
The multiple curves represent various concentrations of Panzem® ranging from zero to 100 micromolar concentrations.

[7] = system: human coronary artery smooth muscle cell; assay: Inhibition of human coronary artery smooth muscle cell proliferation by trichostatin A, cell culture; format: cell-based; settings: in vitro cell culture; read-out: anti-proliferative IC50
Description: FIG. 51 is a graph of the inhibition of coronary artery smooth muscle cells by trichostatin A in a cell culture study.

[8] = system: tumor cell lines; settings: Woo et al. 2002; cited from earlier work
[9] = Cell viability assay (cytotoxicity); format: cell-based
Description: as §1, §2

[10] = In vitro release of sirolimus and cilostazol from stent coating; format: physicochemical; settings: single-layer configuration of FIG. 83
[11] = system: human coronary artery smooth muscle cells; assay: Antiproliferative effects of PX867 on cultured human coronary artery smooth muscle cells; format: cell-based
Description: A PI3 kinase inhibitor can affect restinosis when administered by local or systemic delivery alone or in combination with sirolimus. FIGS. 87 and 88 illustrate the antiproliferative effects of PX867 on cultured human coronary artery smooth muscle cells alone (FIG. 87) or in combination with sirolimus (FIG. 88). […] Curve 8702 illustrates the percent inhibition for various concentrations. In FIG. 88, the six curves 8802, 8804, 8806, 8808, 8810 and 8812 represent various concentrations of PX867 with various concentrations of sirolimus. […] More specifically, curve 8812 illustrates the percent inhibition for a 240 nM PX-867 concentration. […] This may be compared to curve 8804 which represents a 15 nM PX-867 concentration. As one can see, the percent inhibition increases as the concentration of sirolimus increases. Accordingly, a potent PI3 kinase inhibitor, such as PX-867, can improve the inhibition of coronary artery smooth muscle cell proliferation either as a stand alone treatment or via combination with another restenotic agent, such as sirolimus.

**Q.** Which “concentration relative to the solubility of sirolimus in water” value ([1]; 4 mg/ml liquid formulation with PEG 200) does the source give for CO[C@H]1C[C@@H]2CC[C@@H](C)[C@@](O)(O2)C(=O)C(=O)N2CCCC[C@H]2C(=O)O[C@H]([C@H](C)C[C@@H]2CC[C@@H](O)[C@H](OC)C2)CC(=O)[C@H](C)/C=C(\C)[C@@H](O)[C@@H](OC)C(=O)[C@H](C)C[C@H](C)/C=C/C=C/C=C/1C [rapamycin] here?
**A.** Its value is “about four hundred to about one thousand times higher”.

**Q.** And the “drug remaining in the drug coating” value [2]?
**A.** Its value is about 80%.

**Q.** Which “effect of the added agent on the anti-proliferative rapamycin dose response curve” value (“effect of the added agent” for short) [3] does the source give for COc1c(C)c2c(c(O)c1C/C=C(\C)CCC(=O)O)C(=O)OC2 [mycophenolic acid] here?
**A.** Its value is “potentiates the anti-proliferative activity of rapamycin”.

**Q.** With CC(=O)O[C@H]1C(=O)[C@@]2(C)[C@H]([C@H](OC(=O)c3ccccc3)[C@]3(O)C[C@H](OC(=O)[C@H](O)[C@@H](NC(=O)c4ccccc4)c4ccccc4)C(C)=C1C3(C)C)[C@]1(OC(C)=O)CO[C@@H]1C[C@@H]2O [paclitaxel] as the compound, how does the “concentration of paclitaxel in a true liquid formulation” value [4] read?
**A.** Its value is “up to 2.5 mg/ml”.

**Q.** And the “concentration relative to the solubility of paclitaxel in water” value [4]?
**A.** Its value is “about 1000 fold”.

**Q.** For COc1cc2c(cc1O)CC[C@@H]1[C@@H]2CC[C@]2(C)[C@@H](O)CC[C@@H]12 [Panzem®, 2-methoxyestradiol], which “human coronary artery smooth muscle cell survival (MTS assay)” value [5] is on record?
**A.** Its value is “do not reduce human coronary artery smooth muscle cell survival”.

**Q.** What about the “effect of the added agent” value [6] of the same compound?
**A.** Its value is “increases the percent of inhibition of rapamycin alone”.

**Q.** What about the “inhibition of human coronary artery smooth muscle cell proliferation in vitro” value ([6]; agent alone) of the same compound?
**A.** Its value is “extremely effective inhibitor”.

**Q.** Which IC50 [7] does the source give for CC(/C=C/C(=O)NO)=C\[C@@H](C)C(=O)c1ccc(N(C)C)cc1 [trichostatin A] here?
**A.** The IC50 was about 6 nM.

**Q.** And the “anti-proliferative IC50's” value [8]?
**A.** Its value is “low nM range”.

**Q.** Which “effect of the added agent” value [3] does the source give for Nc1nc(Cl)nc2c1ncn2[C@H]1C[C@H](O)[C@@H](CO)O1 [Cladribine, 2-chlorodeoxyadenosine] here?
**A.** Its value is “potentiate the anti-proliferative activity of rapamycin”.

**Q.** With CO[C@H]1C[C@@H]2CC[C@@H](C)[C@@](O)(O2)C(=O)C(=O)N2CCCC[C@H]2C(=O)O[C@H]([C@H](C)C[C@@H]2CC[C@@H](OC(=O)C(C)(CO)CO)[C@H](OC)C2)CC(=O)[C@H](C)/C=C(\C)[C@@H](O)[C@@H](OC)C(=O)[C@H](C)C[C@H](C)/C=C/C=C/C=C/1C [CCI-779] as the compound, how does the “concentration in the final solution (HPLC assay)” value ([1]; ethanol, Vitamin E TPGS and water, ethanol less than two percent) read?
**A.** Its value is 15000 µg/mL.

**Q.** With CC[C@@]1(O)C(=O)OCc2c1cc1n(c2=O)Cc2cc3c(CN(C)C)c(O)ccc3nc2-1 [topotecan] as the compound, how does the “cytotoxicity in cell viability assay” value ([9]; at concentrations up to one micromolar) read?
**A.** Its value is “non-cytotoxic”.

**Q.** And the “effect of the added agent” value [6]?
**A.** The value was “potentiate the anti-proliferative activity of rapamycin”.

**Q.** For COc1cc([C@@H]2c3cc4c(cc3[C@@H](O[C@@H]3O[C@@H]5CO[C@@H](C)O[C@H]5[C@H](O)[C@H]3O)[C@H]3COC(=O)[C@H]23)OCO4)cc(OC)c1O [etoposide], which “cytotoxicity in cell viability assay” value ([9]; at concentrations up to ten micromolar) is on record?
**A.** The value was “non-cytotoxic”.

**Q.** And the “effect of the added agent” value [3]?
**A.** The value was “potentiate the anti-proliferative activity of rapamycin”.

**Q.** Which results are given for O=C1CCc2cc(OCCCCc3nnnn3C3CCCCC3)ccc2N1 [cilostazol, 6[4-(1-cyclohexyl-1H-tetrazol-5-yl)-butoxy]-3,4-dihydro-2-(1H)-quinolinone]?
**A.** in vitro release from the coating [10]: ~35%; drug remaining in the drug coating [2]: ~80%

**Q.** For COC[C@H]1OC(=O)/C(=C\N2CCCC2)C2=C(O)C(=O)C3=C([C@H](OC(C)=O)C[C@]4(C)C(=O)CC[C@@H]34)[C@]21C [PX-867], which “inhibition of coronary artery smooth muscle cell proliferation” value ([11]; PX867 alone, concentration of about 10^−6) is on record?
**A.** The value was “close to one hundred percent inhibition”.

**Q.** And the “combination effect with sirolimus on percent inhibition” value ([11]; PX-867 15-240 nM with various concentrations of sirolimus)?
**A.** The value was “strong synergistic effect between PX-867 and sirolimus”.
